Data as given in the NIST ThermoML archive (doi:10.1021/je0502546).
± gives the expanded uncertainty stated by the source.

Columns and labels:
[1] = 101 kPa, Liquid; for viscosity: Capillary tube (Ostwald / Ubbelohde) method
[2] = refractive index (Na D-line) (dimensionless); conditions: 101.33 kPa, Liquid, Standard Abbe refractometry
[3] = xn = mol fraction of the nth substance listed; conditions: 101 kPa, Liquid; for viscosity: Capillary tube (Ostwald / Ubbelohde) method
[4] = refractive index (Na D-line) (dimensionless); xn = mol fraction of the nth substance listed; conditions: 101 kPa, Liquid, Standard Abbe refractometry

c1ccccc1 [benzene]
Conditions	mass density, [1] [kg/m3]	refractive index, [2]	viscosity, [1] [mPa·s]
293.15 K	877.43 ± 0.3	1.5011 ± 0.0008	0.647 ± 0.006
303.15 K	868.26 ± 0.3	1.4947 ± 0.0008	0.563 ± 0.005

c1ccccc1 [benzene] + COc1ccccc1
x2 = 0
Conditions	mass density, [3] [kg/m3]	refractive index, [4]	viscosity, [3] [mPa·s]
293.15 K	877.43 ± 0.3	1.5011 ± 0.0008	0.647 ± 0.006
303.15 K	868.26 ± 0.3	1.4947 ± 0.0008	0.563 ± 0.005

CCCCc1ccccc1 [butylbenzene]
Conditions	mass density, [1] [kg/m3]	refractive index, [2]	viscosity, [1] [mPa·s]
293.15 K	861.26 ± 0.39	1.4895 ± 0.0007	1.034 ± 0.009
303.15 K	852.23 ± 0.39	1.4845 ± 0.0007	0.893 ± 0.008

CCCCc1ccccc1 [butylbenzene] + COc1ccccc1
Conditions	mass density, [3] [kg/m3]	refractive index, [4]	viscosity, [3] [mPa·s]
293.15 K, x2 = 0	861.26 ± 0.39	1.4895 ± 0.0007	1.034 ± 0.009
293.15 K, x2 = 0.1238	873.01 ± 0.4	1.4923 ± 0.0007	1.005 ± 0.009
293.15 K, x2 = 0.225	884.01 ± 0.4	1.4948 ± 0.0007	0.985 ± 0.009
293.15 K, x2 = 0.3541	898.83 ± 0.4	1.498 ± 0.0007	0.971 ± 0.009
293.15 K, x2 = 0.48	914.4 ± 0.41	1.5014 ± 0.0007	0.965 ± 0.009
293.15 K, x2 = 0.581	927.77 ± 0.41	1.5042 ± 0.0007	0.97 ± 0.009
293.15 K, x2 = 0.67	940.23 ± 0.42	1.5068 ± 0.0007	0.983 ± 0.009
293.15 K, x2 = 0.7672	954.65 ± 0.43	1.5097 ± 0.0007	1.002 ± 0.009
293.15 K, x2 = 0.8483	967.5 ± 0.43	1.5123 ± 0.0007	1.027 ± 0.009
293.15 K, x2 = 0.9201	979.53 ± 0.44	1.5148 ± 0.0007	1.052 ± 0.009
303.15 K, x2 = 0	852.23 ± 0.39	1.4845 ± 0.0007	0.893 ± 0.008
303.15 K, x2 = 0.1238	865.04 ± 0.39	1.4872 ± 0.0007	0.872 ± 0.008
303.15 K, x2 = 0.225	875.92 ± 0.4	1.4896 ± 0.0007	0.855 ± 0.008
303.15 K, x2 = 0.3541	890.71 ± 0.4	1.4927 ± 0.0007	0.841 ± 0.008
303.15 K, x2 = 0.48	906.13 ± 0.41	1.4961 ± 0.0007	0.837 ± 0.008
303.15 K, x2 = 0.581	919.36 ± 0.41	1.4989 ± 0.0007	0.842 ± 0.008
303.15 K, x2 = 0.67	931.73 ± 0.42	1.5014 ± 0.0007	0.851 ± 0.008
303.15 K, x2 = 0.7672	946.15 ± 0.42	1.5043 ± 0.0007	0.867 ± 0.008
303.15 K, x2 = 0.8483	958.84 ± 0.43	1.5068 ± 0.0007	0.885 ± 0.008
303.15 K, x2 = 0.9201	970.6 ± 0.43	1.5093 ± 0.0007	0.905 ± 0.008

CCc1ccccc1 [ethylbenzene]
Conditions	mass density, [1] [kg/m3]	refractive index, [2]	viscosity, [1] [mPa·s]
293.15 K	866.95 ± 0.22	1.4957 ± 0.0007	0.669 ± 0.006
303.15 K	858.01 ± 0.22	1.4902 ± 0.0007	0.596 ± 0.005
